Source: patent US11085016B1, “Method for screening bacteria capable of degrading ethylene oxide” (priority 2020, dated 2021)

Columns and labels:
[1] = Ethylene oxide tolerance acclimatization: growth on medium plates with increasing ethylene oxide; parameters: key: + normal growth; ± low growth; conditions: Example 3, carbon source 100%
Method: Ethylene oxide tolerance acclimatization medium plates were made as follows: Peptone 10 g, glucose 40 g, agar 15 g, pH adjusted to 5.4-5.8, and filled with distilled water to 1000 mL which was distributed into 250 mL. Sterilization was then performed at 121° C. for 20 min. The medium was heated to melt before use. When the temperature of the medium was cooled down to 50-56° C., 25 mg, 50 mg, 125 mg, and 200 mg of ethylene oxide was added, respectively, by using a sealed injection needle to obtain four ethylene oxide tolerance acclimatization medium plates containing different concentrations of ethylene oxide (100 mg/L, 200 mg/L, 500 mg/L, and 800 mg/L, respectively), named as ethylene oxide tolerance acclimatization medium plate A, ethylene oxide tolerance acclimatization medium plate B, ethylene oxide tolerance acclimatization medium plate C, and ethylene oxide tolerance acclimatization medium plate D, respectively.
(§1) The purified bacteria having a potential for degrading ethylene oxide were streak-inoculated on ethylene oxide tolerance acclimatization medium A, and cultured at a constant temperature of 37° C. for 48 h; a single colony having a largest radius was picked for further inoculation on ethylene oxide tolerance acclimatization medium B, and cultured at a constant temperature of 37° C. for 48 h; a single colony having a largest radius was picked for further inoculation on ethylene oxide tolerance acclimatization medium C, and cultured at a constant temperature of 37° C. for 48 h; a single colony having a largest radius was picked for further inoculation on ethylene oxide tolerance acclimatization medium D, and cultured at a constant temperature of 37° C. for 48 h, to obtain ethylene oxide-tolerant bacteria. Growth situation of the strains on the ethylene oxide tolerance acclimatization medium plates A, B, C, and D are as shown in Table 1.

[2] = Ethylene oxide degradation acclimatization: growth on 800 mg/L ethylene oxide plates with decreasing carbon source; parameters: key: + normal growth; ± low growth
Method: Ethylene oxide degradation acclimatization medium plates were made as follows: Peptone 10 g, glucose (20 g, 12 g, 4 g, and 0 g, respectively), agar 15 g, pH adjusted to 5.4-5.8, and filled with distilled water to 1000 mL which was distributed into 250 mL. Sterilization was then performed at 121° C. for 20 min. The medium was heated to melt before use. When the temperature of the medium was cooled down to 50-56° C., 200 mg of ethylene oxide was added by using a sealed injection needle to obtain four ethylene oxide degradation acclimatization medium plates containing different concentrations of carbon source (50%, 30%, 10%, 0%, respectively), named as ethylene oxide degradation acclimatization medium plate A, ethylene oxide degradation acclimatization medium plate B, ethylene oxide degradation acclimatization medium plate C, and ethylene oxide degradation acclimatization medium plate D, respectively.
as §1, with “The ethylene oxide-tolerant” for “The purified”, “bacteria” for “bacteria having a potential for degrading ethylene oxide”, “on Ethylene Oxide Degradation Acclimatization” for “on ethylene oxide tolerance acclimatization”, “48 h; a single colony having a largest radius was picked and preserved on an agar medium bevel containing corresponding nutritional components in Ethylene Oxide Degradation Acclimatization medium D,” for “48 h,”, “ethylene oxide-degrading strains.” for “ethylene oxide-tolerant bacteria.”, “oxide degradation” for “oxide tolerance”

[3] = Comparative experiment for the degradation of ethylene oxide (gas chromatography); conditions: Example 3
Method: The bacteria having a potential for degrading ethylene oxide which have not been subjected to the acclimatization steps and the strains capable of tolerating and degrading ethylene oxide obtained after the acclimatization steps were inoculated into activation medium, respectively, for activation, and cultured to a bacteria concentration of 10^10-10^12 cfu/mL in the culture.
The activation medium was made as follows: Peptone 10 g, filled with distilled water to 1000 mL which was distributed into 400 mL. Then, sterilization was performed at 121° C. for 20 min. Thereafter, the temperature of the medium was cooled down to RT for storage. 160 mg and 320 mg of ethylene oxide was added, respectively, by using a sealed syringe to obtain two activation media containing different concentrations (400 mg/L and 800 mg/L, respectively) of ethylene oxide for the test of degrading capability of the ethylene oxide-degrading strains.
Comparative experiment for the degradation of ethylene oxide was performed with the following test groups and control group.
Test group 1: 5 mL of an activation culture of the bacteria capable of tolerating and degrading ethylene oxide was inoculated into 400 mL of activation media containing 400 mg/L (1A) and 800 mg/L (1B), respectively, of ethylene oxide. The amount of live bacteria in the medium was 10^8-10^10 cfu/mL.
Test group 2: 5 mL of an activation culture of the bacteria having a potential for degrading ethylene oxide which have not been subjected to the acclimatization steps was inoculated into 400 mL of activation media containing 400 mg/L (2A) and 800 mg/L (2B), respectively, of ethylene oxide. The amount of live bacteria in the medium was 10^8-10^10 cfu/mL.
Control group: 400 mL of activation media containing 400 mg/L (control group A) and 800 mg/L (control group B), respectively, of ethylene oxide with no bacteria strain inoculated.
The test groups and control groups are placed together in an incubated for culturing at 37° C. for 48 h. […] The result of degradation was detected by gas chromatography. […]
the subject samples to be analyzed were prepared by diluting samples from the treatment and control groups 5 times with deionized water;
after the GC instrument is stabilized and under the same conditions, 2 μL each of the ethylene oxide standards and the diluted samples to be analyzed were injected into the GC instrument, wherein each sample was measured twice in parallel;
qualitive determination was conducted according to the retention time and quantitative calculation on each peak area was performed to take the average value; […]
the degradation rate of ethylene oxide for each sample was calculated according to the following formula: Degradation Rate (%)=(Control Group Concentration−Treatment Group Concentration)/Control Group Concentration×100. […]

Lactobacillus
Growth, C (100%)/EO(mg/L) 100 ([1]; EO 100 mg/L): +
Growth, C (100%)/EO(mg/L) 200 ([1]; EO 200 mg/L): +
Growth, C (100%)/EO(mg/L) 500 ([1]; EO 500 mg/L): +
Growth, C (100%)/EO(mg/L) 800 ([1]; EO 800 mg/L): +
Growth, EO (800 mg/L)/ C (%) 0 % ([2]; Example 3, carbon source 0%): +
Growth, EO (800 mg/L)/ C (%) 10 % ([2]; Example 3, carbon source 10%): +
Growth, EO (800 mg/L)/ C (%) 30 % ([2]; Example 3, carbon source 30%): +
Growth, EO (800 mg/L)/ C (%) 50 % ([2]; Example 3, carbon source 50%): +
EO (400 mg/L)/C (0%) Degradation rate (%) After Acc. ([3]; EO 400 mg/L, strain after acclimatization): 75.96%
EO (400 mg/L)/C (0%) Degradation rate (%) Before Acc. ([3]; EO 400 mg/L, strain before acclimatization): 17.32%
EO (800 mg/L)/C (0%) Degradation rate (%) After Acc. ([3]; EO 800 mg/L, strain after acclimatization): 64.83%
EO (800 mg/L)/C (0%) Degradation rate (%) Before Acc. ([3]; EO 800 mg/L, strain before acclimatization): 6.89%
